Target: HCoV-229E 3CL protease (Human coronavirus 229E, UniProt P0C6U2)
Test: FRET based protease assay, HCoV-229E 3CL
Format: biochemical
Details: 229E IC50, 6 nM H229E-CoV Chis-3CLpro, 6 μM peptide 1 substrate, 25° C., 1.5 hrs, pH 7.5

Chain of HCoV-229E 3CL protease (P0C6U2 2966-3267): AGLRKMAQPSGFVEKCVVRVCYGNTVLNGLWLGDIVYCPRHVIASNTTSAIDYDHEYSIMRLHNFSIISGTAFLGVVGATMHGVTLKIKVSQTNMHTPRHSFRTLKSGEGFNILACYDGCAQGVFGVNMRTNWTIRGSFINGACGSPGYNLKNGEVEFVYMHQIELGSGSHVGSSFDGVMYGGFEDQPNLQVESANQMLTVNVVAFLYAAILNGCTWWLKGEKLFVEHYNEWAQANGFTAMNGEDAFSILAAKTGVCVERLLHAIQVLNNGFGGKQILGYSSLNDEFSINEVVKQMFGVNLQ

SMILES | IC50
CC1(C)[C@@H]2[C@H]3C(=O)N[C@H](C#N)C[C@@H]4C(=O)NC[C@@H]4/C=C/CC[C@H](NC(=O)C(F)(F)F)C(=O)N3C[C@@H]21 [Example 108] | < 100 nM
CC1(C)[C@@H]2[C@H]3C(=O)N[C@H](C#N)C[C@@H]4C(=O)NC[C@@H]4CCCC[C@H](NC(=O)OC4(C(F)(F)F)CCC4)C(=O)N3C[C@@H]21 [Example 152] | < 100 nM
CC1(C)[C@@H]2[C@H]3C(=O)N[C@H](C#N)C[C@@H]4C(=O)NC[C@@H]4CCCC[C@H](NS(=O)(=O)C4CC4)C(=O)N3C[C@@H]21 [Example 156] | < 100 nM
CC(C)(C)OC(=O)NN1CCCC[C@H]2CNC(=O)[C@H]2C[C@@H](C#N)NC(=O)[C@@H]2[C@@H]3[C@H](CN2C1=O)C3(C)C [Example 168] | 1000 to 20000 nM
CC(C)(C)C(=O)N[C@H]1CCCC[C@H]2CNC(=O)[C@H]2C[C@@H](C#N)NC(=O)[C@@H]2[C@@H]3[C@H](CN2C1=O)C3(C)C [Example 55] | < 100 nM
CC(C)C[C@@H]1NC(=O)CCCCC[C@@H]2CNC(=O)[C@H]2C[C@@H](C=O)NC1=O [Example 31] | 1000 to 20000 nM
N#C[C@@H]1C[C@@H]2C(=O)NC[C@@H]2CCCC[C@H](NC(=O)C2CC(F)(F)C2)C(=O)N2C[C@@H]3CCC[C@@H]3[C@H]2C(=O)N1 [Example 84] | < 100 nM
CC(C)(C)CC(=O)N[C@H]1CCCC[C@H]2CNC(=O)[C@H]2C[C@@H](C#N)NC(=O)[C@@H]2[C@@H]3[C@H](CN2C1=O)C3(C)C [Example 73] | < 100 nM
CC(C)(C)OC(=O)N[C@@]1(C)CCCCC[C@H]2CNC(=O)[C@H]2C[C@@H](C#N)NC(=O)[C@@H]2[C@@H]3[C@H](CN2C1=O)C3(C)C [Example 126] | > 20000 nM
CC(C)C[C@@H]1NC(=O)[C@@H](C2CCCC2)CCC[C@H]2CNC(=O)[C@H]2C[C@@H](C=O)NC1=O [Example 13] | 100 to 1000 nM
CC(C)(C)OC(=O)N[C@H]1CCCC[C@H]2CNC(=O)[C@H]2C[C@@H](C#N)NC(=O)[C@@H]2[C@H]3CCC[C@H]3CN2C1=O [Example 79] | < 100 nM
N#C[C@@H]1C[C@@H]2C(=O)NC[C@@H]2CCCC[C@H](NC(=O)C2(C(F)(F)F)CC2)C(=O)N2C[C@@H]3CCC[C@@H]3[C@H]2C(=O)N1 [Example 150] | < 100 nM
CC1(C)[C@@H]2[C@H]3C(=O)N[C@H](C#N)C[C@@H]4C(=O)NC[C@@H]4CCCC[C@H](NC(=O)C4CC5(CCC5)C4)C(=O)N3C[C@@H]21 (some centres unmarked) [Example 81] | < 100 nM
CC(C)(C)C[C@@H]1NC(=O)[C@@H](NC(=O)c2ccc(F)c(C(F)(F)F)c2)CCCC[C@H]2CNC(=O)[C@H]2C[C@@H](C#N)NC1=O [Example 142] | 100 to 1000 nM
CC(C)(C)OC(=O)N[C@H]1CC/C=C\[C@H]2CCNC(=O)[C@H]2C[C@@H](C#N)NC(=O)[C@@H]2[C@@H]3[C@H](CN2C1=O)C3(C)C [Example 114] | < 100 nM
CC1(C)[C@@H]2[C@H]3C(=O)N[C@H](C#N)C[C@@H]4C(=O)NC[C@@H]4CCCC[C@H](NC(=O)CC4CCCC4)C(=O)N3C[C@@H]21 [Example 90] | < 100 nM
CC(C)(C)C(=O)N[C@H]1CCCC[C@H]2CNC(=O)[C@@H]2C[C@@H](C#N)NC(=O)[C@@H]2[C@@H]3[C@H](CN2C1=O)C3(C)C [Example 67] | 100 to 1000 nM
CC(C)C[C@@H]1NC(=O)CCCCCC[C@H]2CNC(=O)[C@H]2C[C@@H](C=O)NC1=O [Example 45] | < 100 nM
N#C[C@@H]1C[C@@H]2C(=O)NC[C@@H]2CCCC[C@H](NC(=O)C(F)(F)F)C(=O)N2C[C@@H]3CCC[C@@H]3[C@H]2C(=O)N1 [Example 88] | < 100 nM

SMILES | IC50
CC(C)C[C@@H]1NC(=O)CCCCCC[C@@H]2CNCC(=O)[C@H]2C[C@@H](C=O)NC1=O [Example 51] | 1000 to 20000 nM
CC1(C)[C@@H]2[C@H]3C(=O)N[C@H](C#N)C[C@@H]4C(=O)NC[C@@H]4CCCC[C@H](Nc4ccnc(C(F)(F)F)n4)C(=O)N3C[C@@H]21 [Example 164] | < 100 nM
CC(C)C[C@@H]1NC(=O)[C@@H](NC(=O)C(C)(C)C)CC/C=C/[C@H]2CNC(=O)[C@H]2C[C@@H](C#N)NC1=O [Example 58] | < 100 nM
CC(C)(F)C[C@@H]1NC(=O)[C@@H](NC(=O)OC(C)(C)C)CCCC[C@H]2CNC(=O)[C@H]2C[C@@H](C#N)NC1=O [Example 138] | 100 to 1000 nM
Cc1nc(C(=O)N[C@H]2CCCC[C@H]3CNC(=O)[C@H]3C[C@@H](C#N)NC(=O)[C@@H]3[C@@H]4[C@H](CN3C2=O)C4(C)C)cs1 [Example 113] | 100 to 1000 nM
CC(C)C[C@@H]1NC(=O)CCCCCC[C@H]2CNCC(=O)[C@@H]2C[C@@H](C=O)NC1=O [Example 52] | 100 to 1000 nM
CC(C)C[C@@H]1NC(=O)[C@@H](Cc2ccccc2)CCCCC[C@@H]2CNC(=O)[C@@H]2C[C@@H](C#N)NC1=O [Example 49] | > 20000 nM
CC(C)(C)OC(=O)N[C@H]1CCCC[C@H]2CNC(=O)[C@H]2C[C@@H](C#N)NC(=O)[C@@H]2CCCCCN2C1=O [Example 143] | 100 to 1000 nM
CC1(C)[C@@H]2[C@H]3C(=O)N[C@H](C#N)C[C@@H]4C(=O)NC[C@@H]4CCCC[C@H](NC(=O)C45CC(C(F)(F)F)(C4)C5)C(=O)N3C[C@@H]21 [Example 119] | < 100 nM
CC(C)C[C@@H]1NC(=O)CCCC[C@H]2CNC(=O)[C@@H]2C[C@@H](C#N)NC1=O [Example 24] | 100 to 1000 nM
CC(C)C[C@@H]1NC(=O)[C@@H](Cc2ccccc2)CCCC[C@H]2CNC(=O)[C@H]2C[C@@H](C#N)NC1=O [Example 39] | 100 to 1000 nM
CC(C)(C(=O)N[C@H]1CCCC[C@H]2CNC(=O)[C@H]2C[C@@H](C#N)NC(=O)[C@@H]2[C@@H]3[C@H](CN2C1=O)C3(C)C)c1ccc(Cl)cc1 [Example 121] | < 100 nM
CC1(C)[C@@H]2[C@H]3C(=O)N[C@H](C#N)C[C@@H]4C(=O)NCC[C@@H]4CCCC[C@H](NC(=O)OC4CCCC4)C(=O)N3C[C@@H]21 [Example 124] | < 100 nM
CC(C)C[C@@H]1NC(=O)CCCCCC[C@@H]2CNC(=O)[C@H]2C[C@@H](C=O)NC1=O [Example 47] | 100 to 1000 nM
CC1(C)[C@@H]2[C@H]3C(=O)N[C@H](C#N)C[C@@H]4C(=O)NC[C@@H]4CCCC[C@H](NS(=O)(=O)C(F)(F)F)C(=O)N3C[C@@H]21 [Example 158] | < 100 nM
CC(C)C[C@@H]1NC(=O)[C@@H](Cc2ccccc2)CCC[C@H]2CNC(=O)[C@@H]2C[C@@H](C#N)NC1=O [Example 27] | 1000 to 20000 nM
CC(C)(C)OC(=O)N[C@H]1CCCC[C@H]2CNC(=O)[C@H]2C[C@@H](C#N)NC(=O)[C@@H]2CC(F)(F)CN2C1=O [Example 131] | 1000 to 20000 nM
CC1(C)[C@@H]2[C@H]3C(=O)N[C@H](C#N)C[C@@H]4C(=O)NC[C@@H]4CCCC[C@H](NC(=O)C4CCC4)C(=O)N3C[C@@H]21 [Example 76] | < 100 nM
CC1(C)[C@@H]2[C@H]3C(=O)N[C@H](C#N)C[C@@H]4C(=O)NC[C@@H]4CCCC[C@H](NC(=O)c4ccc(F)cc4)C(=O)N3C[C@@H]21 [Example 82] | < 100 nM

SMILES | IC50
CC1(C)[C@@H]2[C@H]3C(=O)N[C@H](C#N)C[C@H]4C(=O)NC[C@@H]4CCCCC(=O)N3C[C@@H]21 [Example 25] | 100 to 1000 nM
CC(C)C[C@@H]1NC(=O)[C@@H](Cc2cccc(C(F)(F)F)c2)CCCC[C@H]2CNC(=O)[C@H]2C[C@@H](C#N)NC1=O [Example 40] | 1000 to 20000 nM
CC(C)C[C@@H]1NC(=O)[C@@H](NC(=O)C(C)(C)C)CC/C=C\[C@H]2CNC(=O)[C@H]2C[C@@H](C#N)NC1=O [Example 59] | 100 to 1000 nM
CC(C)C[C@@H]1NC(=O)[C@@H](NC(=O)OC(C)(C)C)CCC[C@H]2CNC(=O)[C@H]2C[C@@H](C=O)NC1=O [Example 15] | 100 to 1000 nM
CC1(C)[C@@H]2[C@H]3C(=O)N[C@H](C#N)C[C@@H]4C(=O)NC[C@@H]4CCCC[C@H](NC(=O)C(C)(C)C(F)(F)F)C(=O)N3C[C@@H]21 [Example 141] | < 100 nM
CC(C)C[C@@H]1NC(=O)[C@H](Cc2ccccc2)CCC[C@H]2CNC(=O)[C@H]2C[C@@H](C=O)NC1=O [Example 12] | < 100 nM
CC(C)(C)C(=O)N[C@H]1C/C=C\[C@H]2CNC(=O)[C@H]2C[C@@H](C#N)NC(=O)[C@@H]2[C@@H]3[C@H](CN2C1=O)C3(C)C [Example 64] | 1000 to 20000 nM
CC(C)(C)C[C@@H]1NC(=O)[C@@H](NC(=O)c2ccc(Cl)c(Cl)c2)CCCC[C@H]2CNC(=O)[C@H]2C[C@@H](C#N)NC1=O [Example 136] | < 100 nM
CC(C)(C)OC(=O)N[C@@H]1CCCC[C@H]2CNC(=O)[C@H]2C[C@@H](C#N)NC(=O)[C@@H]2[C@@H]3[C@H](CN2C1=O)C3(C)C [Example 128] | > 20000 nM
CC(C)(C)OC(=O)N[C@H]1CCCC[C@H]2CNC(=O)[C@H]2C[C@@H](C#N)NC(=O)[C@@H]2[C@H]3CC[C@H](CC3)N2C1=O [Example 111] | 100 to 1000 nM
CC(C)(C)OC(=O)N[C@H]1CCCC[C@H]2CNC(=O)[C@H]2C[C@@H](C#N)NC(=O)[C@@H]2[C@H]3CC[C@H](C3)N2C1=O [Example 127] | 1000 to 20000 nM
CC(C)C[C@@H]1NC(=O)CCCC[C@@H]2CNC(=O)[C@@H]2C[C@@H](C=O)NC1=O [Example 1] | 1000 to 20000 nM
CC(C)(C)OC(=O)N[C@H]1CC/C=C/[C@H]2CCNC(=O)[C@H]2C[C@@H](C#N)NC(=O)[C@@H]2[C@H]3CCC[C@H]3CN2C1=O [Example 99] | 1000 to 20000 nM
CC(C)(C)OC(=O)N[C@H]1CC/C=C/[C@H]2CNC(=O)[C@H]2C[C@@H](C#N)NC(=O)[C@@H]2[C@H]3CCC[C@H]3CN2C1=O [Example 112] | < 100 nM
CC1(C)[C@@H]2[C@H]3C(=O)N[C@H](C#N)C[C@@H]4C(=O)NC[C@@H]4CCCC[C@H](NC(=O)c4ccncn4)C(=O)N3C[C@@H]21 [Example 91] | < 100 nM
CC1(C)[C@@H]2[C@H]3C(=O)N[C@H](C#N)C[C@@H]4C(=O)NC[C@@H]4CCCC[C@H](NC(=O)c4cccc(Cl)c4Cl)C(=O)N3C[C@@H]21 [Example 134] | < 100 nM
CC1(C)C[C@H]2C(=O)N[C@H](C#N)C[C@@H]3C(=O)NC[C@@H]3CCCC[C@H](NC(=O)OC(C)(C)C)C(=O)N2C1 [Example 130] | < 100 nM
CC(C)(C)C(=O)N[C@H]1C/C=C/[C@H]2CNC(=O)[C@H]2C[C@@H](C#N)NC(=O)[C@@H]2[C@@H]3[C@H](CN2C1=O)C3(C)C [Example 63] | < 100 nM
